Test results published in patent US20020103111A1, “Inhibitors of MAdCAM-1-mediated interactions and methods of use therefor” (Millennium Pharmaceuticals, Inc., priority 1996, published 2002).
Like-named read-outs stand apart in the source and are kept apart here. Bridge positions count the residues as written; N and C are the ends. Ends that are not written are not given here. Peptide text beside a SMILES is read from it. * marks the point of attachment. Butanoyl(4-pyren-1-yl) = O=C(CCCc1ccc2ccc3cccc4ccc1c2c34)*

Experiments:
[1] = target: T1, human MAdCAM-1 (huMAdCAM-1-Ig chimera); RPMI 8866 cells expressing α4β7 (Homo sapiens, UniProt P13612+P26010); experiment: huMAdCAM-1-Ig/RPMI 8866 Adhesion Assay; assay type: cell-based; conditions: Table 7, R1-Leu-Asp-Thr-R2, read-out: hMAdCAM IC50
T1 construct: RPMI 8866 cells, a B cell lymphoma expressing α4β7; endogenous in cells; host or cells: RPMI 8866 cells (endogenous α4β7)
Description: RPMI 8866 cells, a B cell lymphoma expressing α4β7 (a gift from D. Erle; Erle, D. J. et al., J. Immunol., 153:517-528 (1994); Shyjan et al., Journal of Immunology, 1996:2851 (1996) were fluorescently labeled (labeling protocol provided below) using BCECF (Molecular probes #B-1170). Cells were resuspended in an assay buffer consisting of Hanks Balanced Salt Solution (HBSS) supplemented with fetal calf serum (FCS) at a final concentration of 2%, HEPES, pH 7.3 at 25 mM. All reagents in this buffer were supplied from Gibco/BRL.
All assays were performed in 96 well strip well plates from Costar (E.I.A./R.I.A. Strip plate-8 Cat. #2581). […] The plates were incubated at 37° C. for one hour (or at 4° C. overnight) and washed once in the automatic plate washer (50 mM Tris HCl, 0.14 M NaCl and 2.0 mM MnCl2 at pH 7.2) (Bio-Tek EL 404 microplate autowasher). Wells were then blocked with PBS (phosphate buffered saline) and 10% FCS (100 μl/well) for one hour at 37° C. followed by the same wash step as described.
Cells were labeled with BCECF-AM (Molecular Probes, Cat. No. B-1170) at a concentration of 2 μl/ml to a cell suspension of 4×10^6 cells/ml in PBS. The cells were incubated in a 37° C. water bath for 30 minutes. Labeled cells were centrifuged at 700 RPM for 10 minutes, resuspended in assay buffer and the centrifugation step was repeated. The cells were resuspended at a final concentration of 2.5×10^6 cells/ml.
For assays, compounds were diluted as follows in a 96 well polypropylene plate. First, a stock solution of each compound was prepared by dissolving compound in 100% DMSO at 100X final concentration to be tested. 10 μl of the stock was added to 90 μl water for the first test dilution. 50 μl of the first test dilution was added to 50 μl of 10% DMSO in water for the second test dilution. 50 μl of the second test dilution was added to 50 μl of 10% DMSO in water for the third test dilution. 50 μof the third test dilution was added to 50 μl of 10% DMSO in water for the fourth test dilution, and so on, until six test dilutions were prepared.
A stock solution of SmM positive control peptide (L783-1A) was made in 100% DMSO, and subsequently diluted in water 1:10 (10 μl of 5 mM stock plus 90 μl of water) to yield a concentration of 0.5mM. This dilution was then further diluted 1:2 with 10% DMSO (50 μl of the compound and 50 μl of 10% DMSO) for a concentration of 250 μM. These 1:2 dilutions were continued serially until six dilutions were achieved. These dilutions represent 10X stocks as shown in the assay set up below:
The assay was set up by adding materials to huMAdCAM-1-Ig-coated plates as follows:
1) 130 μl/well of assay buffer
2) 20 μl/well of diluted compounds or 10% DMSO (control) or diluted positive control peptide.
3) 50 μl of ECECF-AM-labeled RPMI 8866 cells
The plates were wrapped in foil and incubated for 30 minutes at room temperature on a rotary shaker at 45 RPM.
Plates were washed twice (50 mM Tris HCl, […] and 2.0 mM MnCl2 at pH 7.2) on the microplate autowasher plate washer set as follows:
Plates were read in an IDEX fluoresecent plate reader set to excite at 485 nm and read at 535 nm.
Data was collected in microsoft excel in a format for automatic IC 50 determinations.

[2] = target: T2, murine MAdCAM-1 (MAdCAM-1/mCk fusion protein); α4β7-bearing HUT 78 cells (Homo sapiens, UniProt P13612+P26010); experiment: Adhesion of HUT 78 cells to MAdCAM-1/mCk fusion protein bound via capture antibody; assay type: cell-based; conditions: for IC50: HUT 78 cell adhesion to MAdCAM-1/mCk, average of two determinations; for % Adhesion Inhibition 500 μM: 500 μM compound; for % Adhesion Inhibition 500 μM / inhibition at 500 µM: Mn2+ activated; for inhibition at 500 µM: HuT78, 500 μM compound, read-out: % Adhesion Inhibition 500 μM
T2 construct: host or cells: HUT 78 cells (endogenous α4β7); The MAdCAM-1/mCk partner was made in house in baculovirus-infected Sf9 insect cells, used as neat supernatant and captured by rat anti-mCk antibody
Description: The compounds of the present invention were evaluated for their biological properties.
A soluble fusion protein comprising murine MAdCAM-1 was produced in a baculovirus expression system and used in the adhesion assay. A fusion gene in which sequences encoding the signal peptide and extracellular domain of murine MAdCAM-1 were fused to sequences encoding a constant region of the murine kappa light chain (mCk) was constructed, and cloned into a baculovirus shuttle vector. Fusion protein produced from the resulting construct contained the integrin binding sequences of murine MAdCAM-1 at the amino-terminus, and the mCk sequence at the carboxy-terminus. Recombinant baculovirus encoding the fusion protein was harvested from infected Sf9 insect cells.
Human T-cell lymphoma cells (HUT 78 cells) activated with Mn^+2 were used for the adhesion assay in a 96-well format. HUT 78 cells were labelled by preincubation with ECECF-AM stain (Molecular Probes). Assays were conducted in a final volume of 200 μl. The adhesion of HUT 78 cells to MAdCAM-1/mCk fusion protein bound to wells via rat anti-mCk capture antibody was assessed in the presence or absence of each compound. […] Percent inhibition and IC50 values were determined.
HUT 78 cells (a human T cell lymphoma line; American Type Culture Collection, Accession No. ATCC TIB 161) were maintained in culture for up to one month in RPMI 1640 supplemented with 10% FCS, 20 mM HEPES, and Pen-Strep (1:100). Just prior to use in adhesion assays, cells were labeled with BCECF-AM as follows: 1×10^7 cells were pelleted at 1000 rpm for 10 minutes and resuspended in 25 mL cold PBS (Phosphate Buffered Saline). The cells were pelleted again, resuspended in cold PBS, and pelleted again. The cell pellet was resuspended in 25 ml PBS and labeled with 50 μl BCECF-AM (1 μg/μL in DMSO) for 30 minutes at 37° C. (BCECF-AM; 2′,7′-bis-(2-carboxyethyl)-5-(and-6)-carboxyflourescein, acetoxymethyl ester). The labeled cells were pelleted at 700 rpm for 10 minutes, resuspended in 25 ml cold Assay Buffer and pelleted.
The assay was performed in a 96-well format. Plates were coated overnight at 4° C. with 53 μl/well of a 5 μg/mL solution of rat anti-mCk in carbonate buffer. The plates were blocked for 1 hour at 37° C. with 100 μL/well of 1% BSA in PBS. The BSA/PBS solution was removed, and 50 μL of MAdCAM-mCk supernatant was added neat to each well. The assay was conducted under conditions in which capture antibody was the limiting reagent.
Cell adhesion was measured in the presence or absence of compounds. The compounds were resuspended in 100% DMSO, subsequently diluted 1:10 in water, and finally diluted again 1:10 in the assay: 50 μL of 2X Assay Bufler, 30 μL water, 20 μL of compound were added to each well. […] Cell adhesion occurred in 30 minutes at ambient temperature, after which plates were washed with 50 mM Tris/2 mM MnCl2, pH 7.2 using an EL 404 Microplate Autowasher (BIO-TEK Instruments) using the following wash parameters: wash volume=500 μL; two wash cycles; wash depth=80; aspirating after each wash.
Additional determinations were conducted as needed, so that each IC50 was determined over a range which encompassed the IC50. Over this range, Four different concentrations were tested in duplicate.
For each compound, a ratio was determined as follows: An average of the readings from duplicate wells was divided by an average of eight control wells (adhesion in the absence of any compound). […] In addition, the concentration (μM) of compound used was plotted against the resulting ratios.
The IC50 was then determined using Kaleidograph software (Abelbeck Software). The complete procedure was repeated again using duplicate wells for each point.

## CC(C)C[C@H](NC(=O)c1cc2ccccc2cn1)C(=O)N[C@@H](CC(=O)O)C(=O)N[C@H](C(=O)N[C@@H](C)c1cccc2ccccc12)[C@@H](C)O [Table 7 example 6]
[1]
  IC50: 0.97 µM

## CC(C)C[C@H](NC(=O)[C@H](CO)NC(=O)[C@@H](NC(=O)[C@H](CC(=O)O)NC(=O)CCCc1ccc2ccc3cccc4ccc1c2c34)[C@@H](C)O)C(N)=O [Example 51, Pba-Asp-Thr-Ser-Leu] ({Butanoyl(4-pyren-1-yl)}-DTSL-NH2)
[2]; HuT78, read-out: % Adhesion Inhibition
  inhibition at 100 µM: 100%
[2]; IC50 (μM)
  IC50: 13.3 µM

## CC(=O)N[C@H]1CSSC[C@@H](C(N)=O)NC(=O)CNC(=O)[C@H](CC(C)C)NC(=O)[C@H](CO)NC(=O)[C@H]([C@@H](C)O)NC(=O)[C@H](CC(=O)O)NC(=O)[C@H](CC(C)C)NC(=O)CNC1=O [Example 5] (Ac-CGLDTSLGC-NH2; disulfide 1-9)
[2]; HuT78, @200 μM compound, HUT 78 cells
  inhibition at 200 µM: 45%

## CC(C)C[C@H](NC(=O)[C@H](CO)NC(=O)[C@@H](NC(=O)[C@H](CC(=O)O)NC(=O)[C@H](CC(C)C)NC(=O)[C@@H]1CCCN1C(=O)CCCc1ccc2ccc3cccc4ccc1c2c34)[C@@H](C)O)C(N)=O [Example 30, Pba-Pro-Leu-Asp-Thr-Ser-Leu] ({Butanoyl(4-pyren-1-yl)}-PLDTSL-NH2)
[2]; IC50 (μM)
  IC50: 47 µM

## Ac-Arg-Val-His-Trp-Arg-Gly-Leu-Asp-Thr-Ser-Leu-Gly-Ser-Val-Gln (Ac-RVHWRGLDTSLGSVQ; not fully specified (C-terminus); printed as Ac-Arg-Val-His-Trp-Arg-Gly-Leu-Asp-Thr-Ser-Leu-Gly-Ser-Val-Gln) [Example 62]
[2]; HUT 78 cells
  % Adhesion Inhibition 500 μM: 88%

## NH2-Leu-Asp-Thr-Ser-Leu (H-LDTSL; not fully specified (C-terminus); printed as NH2-Leu-Asp-Thr-Ser-Leu) [Example 54]
[2]; HUT 78 cells
  % Adhesion Inhibition 500 μM: 22%

## CC(=O)N[C@H]1CSSC[C@@H](C(N)=O)NC(=O)[C@H](CC(C)C)NC(=O)[C@H](CO)NC(=O)[C@H]([C@@H](C)O)NC(=O)[C@H](CC(=O)O)NC(=O)[C@H](CC(C)C)NC1=O [Example 4, Ac-Cys*-Leu-Asp-Thr-Ser-Leu-Cys*] (Ac-CLDTSLC-NH2; disulfide 1-7)
[2]; HuT78, @250 μM compound, HUT 78 cells, read-out: % Adhesion Inhibition
  inhibition at 250 µM: 51%

## CC(C)C[C@H](NC(=O)[C@H](CO)NC(=O)[C@@H](NC(=O)[C@H](CC(=O)O)NC(=O)[C@H](CC(C)C)NC(=O)CCCc1ccc2ccc3cccc4ccc1c2c34)[C@@H](C)O)C(N)=O [Example 36, Pba-Leu-Asp-Thr-Ser-Leu]
[2]; IC50 (μM)
  IC50: 4 µM

## NH2-Trp-Arg-Gly-Leu-Asp-Thr-Ser-Leu-Gly-Ser (H-WRGLDTSLGS; not fully specified (C-terminus); printed as NH2-Trp-Arg-Gly-Leu-Asp-Thr-Ser-Leu-Gly-Ser) [Example 55]
[2]; HUT 78 cells
  % Adhesion Inhibition 500 μM: 76%

## CC(=O)N[C@@H](CCCNC(=N)N)C(=O)NCC(=O)N[C@@H](CC(C)C)C(=O)N[C@@H](CC(=O)O)C(=O)N[C@H](C(=O)N[C@@H](CO)C(N)=O)[C@@H](C)O [Example 12, Ac-Arg-Gly-Leu-Asp-Thr-Ser] (Ac-RGLDTS-NH2)
[2]; read-out: IC50
  IC50: 1790 µM
[2]; HUT 78 cells
  inhibition at 500 µM: 31%

## Ac-His-Trp-Arg-Gly-Leu-Asp-Thr-Ser-Leu-Gly-Ser-Val (Ac-HWRGLDTSLGSV; not fully specified (C-terminus); printed as Ac-His-Trp-Arg-Gly-Leu-Asp-Thr-Ser-Leu-Gly-Ser-Val) [Example 61]
[2]; HUT 78 cells
  % Adhesion Inhibition 500 μM: 71%

## CC(C)C[C@H](NC(=O)[C@H](CO)NC(=O)[C@@H](NC(=O)[C@H](CC(=O)O)NC(=O)[C@H](CC(C)C)NC(=O)C(c1ccccc1)c1ccccc1)[C@@H](C)O)C(N)=O [Example 31, Dpa-Leu-Asp-Thr-Ser-Leu]
[2]; read-out: IC50
  IC50: 11 µM

## CC(C)C[C@H](NC(=O)[C@H](CO)NC(=O)[C@@H](NC(=O)[C@H](CC(=O)O)NC(=O)[C@H](CC(C)C)NC(=O)Cc1cccc2ccccc12)[C@@H](C)O)C(N)=O [Example 21, Npa-Leu-Asp-Thr-Ser-Leu]
[2]; read-out: IC50
  IC50: 548 µM
[2]; HUT 78 cells
  inhibition at 500 µM: 39%

## CC(C)Cc1ccc(C(C)C(=O)N[C@@H](CC(C)C)C(=O)N[C@@H](CC(=O)O)C(=O)N[C@H](C(=O)N[C@@H](CO)C(=O)N[C@@H](CC(C)C)C(N)=O)[C@@H](C)O)cc1 (stereo partly drawn) [Example 19, Impa-Leu-Asp-Thr-Ser-Leu]
[2]; read-out: IC50
  IC50: 1140 µM
[2]; HUT 78 cells
  inhibition at 500 µM: 44%

## CC(C)C[C@H](NC(=O)[C@H](CO)NC(=O)[C@@H](NC(=O)[C@H](CC(=O)O)NC(=O)[C@H](CC(C)C)NC(=O)Cc1ccc(-c2ccccc2)cc1)[C@@H](C)O)C(N)=O [Example 20, Bipa-Leu-Asp-Thr-Ser-Leu]
[2]; read-out: IC50
  IC50: 485 µM
[2]; HUT 78 cells
  inhibition at 500 µM: 54%
